Each structure is given as a SMILES string. Where only a bound is given, the exact number is not on record here.

From patent publication US20070004660A1, “Synergistic Modulation of Flt3 Kinase Using Alkylquinolines and Alkylquinazolines” (priority 2005, published 2007) come the findings set out here.

Data set [1] deals with MV4-11 cells. The data set can be described thus: Annexin V staining (apoptosis) of MV4-11 cells. The class given is cell-based, human. The conditions noted are these: Tipifarnib and FLT3 inhibitor Compound A, fixed ratio 4:1, 48 hours. How it is done: After the compound incubations, treated cells were harvested and stained with Annexin V-PE and 7-AAD using the Guava Nexin apoptosis kit according to the protocol in the Biological Activity Measurements section hereafter. Annexin V staining peaks at 60% because cells late in apoptosis begin to fall apart and are considered debris. […] Statistical analysis using the above described method of Chou and Talalay was also performed to determine the synergy of the combination. FIG. 11b depictes the isobolar analysis of the Tipifarnib and FLT3 inhibitor Compound A combination in inducing annexin V staining. […] The magnitude of the synergistic induction of apoptosis of MV4-11 cells by the combination of an FTI and a FLT3 inhibitor could not be predicted by those skilled in the art. […]
Annexin V Staining. To examine the apoptosis of the leukemic MV4-11 cell line, cells were treated with Tipifarnib and/or FLT3 inhibitor Compound A, and Annexin V binding to phosphotidylserine on the outer leaflet of the plasma membrane of apoptotic cells was monitored using the GuavaNexin assay reagent and the Guava personal flow cytometry system (Guava Technologies; Hayward, Calif.). […] All annexin positive cells were considered apoptotic and percent Annexin positive cells was calculated.

Data set [2] concerns MV-4-11 tumor xenografts. The experiment in a line: In vivo combination study, FLT3 inhibitor Compound B and Tipifarnib, MV-4-11 xenografts. How it is done:
The effect of combination treatment of the FLT3 Inhibitor FLT3 inhibitors of Formula I′ and Tipifarnib (Zarnestra™) on the growth of MV-4-11 human AML tumor xenografts in nude mice was tested using FLT3 inhibitor Compound B. The in vivo study was designed to extend the in vitro observations to evaluate the potential for a synergistic anti-tumor effect of FLT3 inhibitor Compound B administered orally together with Tipifarnib to nude mice bearing established MV-4-11 tumor xenografts.

Data set [3] deals with MV4-11 cells. The data set can be described thus: Inhibition of MV4-11 cell proliferation (CellTiterGlo, 72 h). It is filed as cell-based. The conditions noted are these: Homo sapiens; 72 h growth inhibition; uncertainty ±20%.

On to `Cn1cncc1C(N)(c1ccc(Cl)cc1)c1ccc2c(c1)c(-c1cccc(Cl)c1)cc(=O)n2C` (single isomer, unassigned; (+)) [Tipifarnib, (+)-6-[amino(4-chlorophenyl)(1-methyl-1H-imidazol-5-yl)methyl]-4-(3-chlorophenyl)-1-methyl-2(1H)-quinolinone], for which the “shift of EC50 for induction of annexin V staining by the combination” value in data set [1] is listed as “more than eight-fold”. Moreover, the “effect on tumor volume compared to control” value in data set [2] (50 mg/kg po alone, Day 9) is given as “not significantly reduced”. Further, the overt toxicity entry in data set [2] (9-day treatment, either agent alone or in combination) is “No overt toxicity”.

As to `O=C1CCCN1CCOc1cc2ncnc(C3CCN(C(=O)Nc4ccc(N5CCCC5)cc4)CC3)c2cc1F` [Compound 206, 4-{6-Fluoro-7-[2-(2-oxo-pyrrolidin-1-yl)-ethoxy]-quinazolin-4-yl}-piperidine-1-carboxylic acid (4-pyrrolidin-1-yl-phenyl)-amide], half-maximal inhibition in data set [3] (IC50) was put at 0.061 µM.

Regarding `COc1cc2c(C3CCN(C(=O)Nc4ccc(N5CCOCC5)cc4)CC3)ncnc2cc1OCCCN1CCN(C)CC1` [Compound 207, 4-{6-Methoxy-7-[3-(4-methyl-piperazin-1-yl)-propoxy]-quinazolin-4-yl}-piperidine-1-carboxylic acid (4-morpholin-4-yl-phenyl)-amide], in data set [3], the IC50 (as a rule, the concentration needed to halve the response being measured) is 0.048 µM.

In data set [3], `COc1cc2c(C3CCN(C(=O)Nc4ccc(N5CCCC5)cc4)CC3)ncnc2cc1OCCN1CCCC1=O` [Compound 209, 4-{6-Methoxy-7-[2-(2-oxo-pyrrolidin-1-yl)-ethoxy]-quinazolin-4-yl}-piperidine-1-carboxylic acid (4-pyrrolidin-1-yl-phenyl)-amide] had an IC50 of 0.026 µM.

The molecule `O=C(Nc1ccc(N2CCCC2)cc1)N1CCC(c2ncnc3cc(N4CCOCC4)c(F)cc23)CC1` [Compound 210, 4-(6-Fluoro-7-morpholin-4-yl-quinazolin-4-yl)-piperidine-1-carboxylic acid (4-pyrrolidin-1-yl-phenyl)-amide] displayed an IC50 in data set [3] of 0.102 µM.

With `COc1cc2c(C3CCN(C(=O)Nc4ccc(N5CCCC5)cc4)CC3)ncnc2cc1N1CCOCC1` [Compound 211, 4-(6-Methoxy-7-morpholin-4-yl-quinazolin-4-yl)-piperidine-1-carboxylic acid (4-pyrrolidin-1-yl-phenyl)-amide], inhibition in data set [3] was half-maximal at 0.02 µM (IC50).

Turning to `COc1cc2c(C3CCN(C(=O)Nc4ccc(N5CCOCC5)cc4)CC3)ncnc2cc1N1CCOCC1` [Compound 212, 4-(6-Methoxy-7-morpholin-4-yl-quinazolin-4-yl)-piperidine-1-carboxylic acid (4-morpholin-4-yl-phenyl)-amide], in data set [3], the IC50 came to 0.367 µM.

On to `COc1cc2ncnc(C3CCN(C(=O)Nc4ccc(I)cc4)CC3)c2cc1OC` [Example 2, 4-(6,7-Dimethoxy-quinazolin-4-yl)-piperidine-1-carboxylic acid (4-iodo-phenyl)-amide], for which, in data set [3], the midpoint of inhibition, the IC50, lay at 0.752 µM.

In turn, `COc1cc2ncnc(C3CCN(C(=O)Nc4ccc(-n5ccnc5)cc4)CC3)c2cc1OC` [Example 3, 4-(6,7-Dimethoxy-quinazolin-4-yl)-piperidine-1-carboxylic acid (4-imidazol-1-yl-phenyl)-amide] registered an IC50 in data set [3] of 0.636 µM.

For the molecule `COc1cc2ncnc(C3CCN(C(=O)Nc4ccc(NC(C)=O)cc4)CC3)c2cc1OC` [Example 25, 4-(6,7-Dimethoxy-quinazolin-4-yl)-piperidine-1-carboxylic acid (4-acetylamino-phenyl)-amide], the IC50 in data set [3] is above 10 µM.

On to `COc1cc2ncnc(C3CCN(C(=O)Nc4ccc(N(C)C)cc4)CC3)c2cc1OC` [Example 26, 4-(6,7-Dimethoxy-quinazolin-4-yl)-piperidine-1-carboxylic acid (4-dimethylamino-phenyl)-amide], for which half-maximal inhibition in data set [3] (IC50) required 0.204 µM.

In turn, `COc1cc2ncnc(C3CCN(C(=O)Cc4ccc(C(C)C)cc4)CC3)c2cc1OC` [Example 28, 1-[4-(6,7-Dimethoxy-quinazolin-4-yl)-piperidin-1-yl]-2-(4-isopropyl-phenyl)-ethanone] gave an IC50 in data set [3] of 0.015 µM.

In data set [3], `CC(C)Oc1ccc(NC(=O)N2CCC(c3ncnc4cc(Cl)ccc34)CC2)cc1` [Example 29, 4-(7-Chloro-quinazolin-4-yl)-piperidine-1-carboxylic acid (4-isopropoxy-phenyl)-amide] displayed an IC50 of 0.315 µM.

The molecule `CC(C)c1ccc(NC(=O)N2CCC(c3ncnc4cc(Cl)ccc34)CC2)cc1` [Example 30, 4-(7-Chloro-quinazolin-4-yl)-piperidine-1-carboxylic acid (4-isopropyl-phenyl)-amide] yielded an IC50 in data set [3] of 0.38 µM.

`COc1ccc2c(C3CCN(C(=O)Nc4ccc(OC(C)C)cc4)CC3)ncnc2c1` [Example 31, 4-(7-Methoxy-quinazolin-4-yl)-piperidine-1-carboxylic acid (4-isopropoxy-phenyl)-amide]: the IC50 in data set [3] was 0.085 µM.

As for `COc1ccc2c(C3CCN(C(=O)Nc4ccc(C(C)C)cc4)CC3)ncnc2c1` [Example 32, 4-(7-Methoxy-quinazolin-4-yl)-piperidine-1-carboxylic acid (4-isopropyl-phenyl)-amide], in data set [3], the IC50 was 0.235 µM.

`CC(C)Oc1ccc(NC(=O)N2CCC(c3ncnc4cc(OCCCN5CCCCC5)ccc34)CC2)cc1` [Example 33, 4-(7-(3-Piperidin-1-yl-propoxy)-quinazolin-4-yl)-piperidine-1-carboxylic acid (4-isopropoxy-phenyl)-amide] yielded an IC50 in data set [3] of 0.05 µM.

`CC(C)Oc1ccc(NC(=O)N2CCC(c3ncnc4cc(OCCN5CCCCC5)ccc34)CC2)cc1` [Example 34, 4-(7-(2-Piperindin-1-yl-ethoxy)-quinazolin-4-yl)-piperidine-1-carboxylic acid (4-isopropoxy-phenyl)-amide] returned an IC50 in data set [3] of 0.095 µM.

In turn, `CCN(CC)CCOc1ccc2c(C3CCN(C(=O)Nc4ccc(OC(C)C)cc4)CC3)ncnc2c1` [Example 35, 4-[7-(2-Diethylamino-ethoxy)-quinazolin-4-yl)-piperidine-1-carboxylic acid (4-isopropoxy-phenyl)-amide] came in with an IC50 in data set [3] of 0.095 µM.

With `CCN(CC)CCCOc1ccc2c(C3CCN(C(=O)Nc4ccc(OC(C)C)cc4)CC3)ncnc2c1` [Example 36, 4-[7-(3-Diethylamino-propoxy)-quinazolin-4-yl)-piperidine-1-carboxylic acid (4-isopropoxy-phenyl)-amide], in data set [3], inhibition was half-maximal at 0.042 µM (IC50).

In data set [3], `CC(C)Oc1ccc(NC(=O)N2CCC(c3ncnc4cc(OCCN5CCOCC5)ccc34)CC2)cc1` [Example 37] gave an IC50 of 0.165 µM.

The molecule `CC(C)Oc1ccc(NC(=O)N2CCC(c3ncnc4cc(OCCCN5CCOCC5)ccc34)CC2)cc1` [Example 38] displayed an IC50 in data set [3] of 0.016 µM.

`CC(C)Oc1ccc(NC(=O)N2CCC(c3ncnc4cc(OCCCN5CCN(C)CC5)ccc34)CC2)cc1` [Example 39] showed an IC50 in data set [3] of 0.014 µM.

Turning to `COCCOc1ccc(NC(=O)N2CCC(c3ncnc4cc(OC)c(OC)cc34)CC2)cc1` [Example 40, 4-(6,7-Dimethoxy-quinazolin-4-yl)-piperidine-1-carboxylic acid [4-(2-methoxy-ethoxy)-phenyl]-amide], it took 2.2 µM to reach half-maximal inhibition in data set [3] (IC50).
